Assay results as given in US4020111A, “Propynyloxy alkyl arene insecticides” (priority 1975, dated 1977).

Columns and labels:
houseflies = test: percent kill with Diazinon, Table XXVII (strain not given); assay type: in vivo, housefly; settings: Diazinon 5 + synergist 10 μg/fly, 1440 min
mice = test: acute toxicity of Dimetilan alone and of synergist alone (intraperitoneal); assay type: in vivo, Swiss albino white male mice; settings: synergist alone 1000 mg/kg ip, 72 hours, of eight mice
Experimental: To determine the acute toxicity of dimetilan alone, eight dosage levels of Dimetilan, ranging from 4 to 32 mg per kg wer applied to eight, Swiss, albino, white, male mice per dosage level. The mice weighed approximately 23 to 27 grams and were five to size weeks old. The Dimetilan was administered intraperitoneally in 0.1 ml of corn oil one hour after the administration of the same dose of corn oil alone.
To determine the acute toxicity of the synergist alone, various synergists were administered intraperitoneally at a dose of 1000 mg/kg to each of a group of eight mice. The number of animals dead at the end of 72 hours is reported in the left hand column of Table XXXXVI.

[1] = system: German male cockroaches (Blatella Germanicus); test: topical application to thorax, 24 hour mortality of German male cockroaches; assay type: in vivo, German cockroach (Blatella Germanicus)

Row | SMILES | percent kill (houseflies) [%] | number of mice dead (mice) | insect mortality, synergist alone ([1]; synergist alone at doses of Table XXXX) | insect mortality, synergist alone ([1]; synergist alone at doses of Table XXXXI)
1 | C#CCON=C(C)c1ccc(Cl)cc1 [I-D] | 100 | – | – | –
2 | C#CCON=Cc1ccc(Cl)cc1Cl [I-G] | 90 | – | – | –
3 | C#CCOCc1ccc(Cl)c(Cl)c1Cl [II-D] | – | 0 | – | –
4 | C#CCOCc1c(Cl)cccc1[N+](=O)[O-] [II-K] | – | 1 | zero | zero
